Patent US20130324404A1, “1, 8 -DIAZASPIRO [4.5] DECANE- 2, 4 -DIONE DERIVATIVES USEFUL AS PESTICIDES” (SYNGENTA PARTICIPATIONS AG, priority 2010, published 2013)

How the values were obtained:
[1] = tested on: Myzus persicae (green peach aphid); assay: Example B1: Activity against Myzus persicae, mixed population, feeding/residual contact activity, preventive (sunflower leaf discs); assay type: in vivo; details: foliar, 144 h, sprayed sunflower leaf discs, 6 days incubation
Protocol: (§1) Activity Against Myzus persicae (Green Peach Aphid)
(§2) (Mixed Population, Feeding/Residual Contact Activity, Preventive)
Sunflower leaf discs are placed on agar in a 24-well microtiter plate and sprayed with test solutions. After drying, the leaf discs are infested with an aphid population of mixed ages. After an incubation period of 6 days, samples are checked for mortality and special effects (e.g. phytotoxicity).

[2] = tested on: Myzus persicae (green peach aphid); assay: Example B5: Activity against Myzus persicae, mixed population, feeding/residual contact activity (infested cabbage plants, spray chamber); assay type: in vivo; details: 144 h, infested cabbage plants sprayed, 6 days after treatment
Protocol: as §1
(§3) (Mixed Population, Feeding/Residual Contact Activity, Plant Damage Evaluation)
(§4) Cabbage plants infested with a mixed population of Myzus persicae are treated with diluted test solutions of the compounds in a spray chamber. 6 days after treatment, samples are checked for mortality and for plant damage (phytotoxicity), visual assessment being made using a 0-100% rating scale (100%=total damage to plant; 0%=no damage to plant). In this test, compounds listed in the tables above show good activity against Myzus persicae and acceptable plant compatibility. For example compounds P1.1, P1.2, P1.3, P1.4, P1.6, P1.7, P1.8, P1.9, P1.10, P1.11 and P1.12 show an activity of greater or equal to 80% against Myzus persicae and damage to cabbage plants less or equal to 10% at a concentration of 200 ppm.

[3] = tested on: cabbage plants; details: in vivo, 6 days, 200 ppm
Protocol: as §1, §3, §4

[4] = tested on: Myzus persicae (green peach aphid); assay: Example B2: Activity against Myzus persicae, mixed population, systemic/feeding activity, curative (pea seedlings); assay type: in vivo; details: 144 h, roots of infested pea seedlings in test solution, 6 days, systemic
From the text: as §1
(Mixed Population, Systemic/Feeding Activity, Curative)
Roots of pea seedlings, infested with an aphid population of mixed ages, are placed directly in the test solutions. 6 days after introduction, samples are checked for mortality and special effects on the plant.

[5] = tested on: Thrips tabaci (onion thrips); assay: Example B3: Activity against Thrips tabaci, mixed population, feeding/residual contact activity, preventive (sunflower leaf discs); assay type: in vivo; details: foliar, 144 h, sprayed sunflower leaf discs, 6 days incubation
Protocol: Activity Against Thrips tabaci (Onion Thrips)
as §2
Sunflower leaf discs are placed on agar in a 24-well microtiter plate and sprayed with test solutions. After drying, the leaf discs are infested with a thrips population of mixed ages. After an incubation period of 6 days, samples are checked for mortality and special effects (e.g. phytotoxicity).

[6] = tested on: Tetranychus urticae (two-spotted spider mite); assay: whole plant or invertebrate; assay type: in vivo; details: foliar, 192 h, read-out: activity (egg, larval and adult mortality) against Tetranychus urticae
From the text: Activity Against Tetranychus urticae (Two-Spotted Spider Mite)
as §2
Bean leaf discs on agar in 24-well microtiter plates are sprayed with test solutions. After drying, the leaf discs are infested with mite populations of mixed ages. 8 days later, discs are checked for egg mortality, larval mortality, and adult mortality.

COCON1C(=O)C(Cl)(c2cc(C)ccc2C)C(=O)C12CCN(OC)CC2 (centres unmarked) [Compound P1.1, 3-Chloro-3-(2,5-dimethyl-phenyl)-8-methoxy-1-methoxymethoxy-1,8-diaza-spiro[4.5]decane-2,4-dione]
mortality at 400 ppm [1]: > 80% | mortality at 200 ppm [2]: ≥ 80% | damage to cabbage plants (phytotoxicity), 0-100% rating scale [3]: ≤ 10% | mortality at 400 ppm [4]: > 80%

COCCON1C(=O)C(Cl)(c2c(C)cc(C)cc2C)C(=O)C12CCN(OC)CC2 (centres unmarked) [Compound P1.2]
mortality at 400 ppm [1]: > 80% | mortality at 200 ppm [2]: ≥ 80% | damage to cabbage plants (phytotoxicity), 0-100% rating scale [3]: ≤ 10% | mortality at 400 ppm [4]: > 80%

CCON1C(=O)C(Cl)(c2c(C)cc(C)cc2C)C(=O)C12CCN(OC)CC2 (centres unmarked) [Compound P1.3]
mortality at 400 ppm [1]: > 80% | mortality at 200 ppm [2]: ≥ 80% | damage to cabbage plants (phytotoxicity), 0-100% rating scale [3]: ≤ 10% | mortality at 400 ppm [4]: > 80% | mortality at 400 ppm [5]: > 80%

CON1CCC2(CC1)C(=O)C(Cl)(c1c(C)cc(C)cc1C)C(=O)N2OCC1CCCC1 (centres unmarked) [Compound P1.4]
mortality at 200 ppm [2]: ≥ 80% | damage to cabbage plants (phytotoxicity), 0-100% rating scale [3]: ≤ 10%

CON1CCC2(CC1)C(=O)C(Cl)(c1c(C)cc(C)cc1C)C(=O)N2OC1CCCCC1 (centres unmarked) [Compound P1.6]
mortality at 200 ppm [2]: ≥ 80% | damage to cabbage plants (phytotoxicity), 0-100% rating scale [3]: ≤ 10%

COCCON1C(=O)C(Cl)(c2cc(C)c(C)cc2Cl)C(=O)C12CCN(OC)CC2 (centres unmarked) [Compound P1.7, 3-Chloro-3-(2-chloro-4,5-dimethyl-phenyl)-8-methoxy-1-(2-methoxy-ethoxy)-1,8-diaza-spiro[4.5]decane-2,4-dione]
mortality at 400 ppm [1]: > 80% | mortality at 200 ppm [2]: ≥ 80% | damage to cabbage plants (phytotoxicity), 0-100% rating scale [3]: ≤ 10% | mortality at 400 ppm [4]: > 80%

CON1CCC2(CC1)C(=O)C(c1c(C)ccc(Cl)c1C)([N+](=O)[O-])C(=O)N2OC (centres unmarked) [Compound P1.8, 3-(3-Chloro-2,6-dimethyl-phenyl)-1,8-dimethoxy-3-nitro-1,8-diaza-spiro[4.5]decane-2,4-dione]
mortality at 200 ppm [2]: ≥ 80% | damage to cabbage plants (phytotoxicity), 0-100% rating scale [3]: ≤ 10%

CON1CCC2(CC1)C(=O)C(Cl)(c1c(C)cc(C)cc1C)C(=O)N2OCC1CCOC1 (centres unmarked) [Compound P1.9]
mortality at 400 ppm [1]: > 80% | mortality at 200 ppm [2]: ≥ 80% | damage to cabbage plants (phytotoxicity), 0-100% rating scale [3]: ≤ 10% | mortality at 400 ppm [4]: > 80%

CON1CCC2(CC1)C(=O)C(Cl)(c1c(C)cc(C)cc1C)C(=O)N2OCC1CCOCC1 (centres unmarked) [Compound P1.10]
mortality at 400 ppm [1]: > 80% | mortality at 200 ppm [2]: ≥ 80% | damage to cabbage plants (phytotoxicity), 0-100% rating scale [3]: ≤ 10% | mortality at 400 ppm [4]: > 80%

CON1CCC2(CC1)C(=O)C(Cl)(c1c(C)cc(C)cc1C)C(=O)N2OC1CCOC1 (centres unmarked) [Compound P1.11]
mortality at 200 ppm [2]: ≥ 80% | damage to cabbage plants (phytotoxicity), 0-100% rating scale [3]: ≤ 10% | mortality at 400 ppm [4]: > 80%

CON1CCC2(CC1)C(=O)C(Cl)(c1cc(Br)c(C)cc1C)C(=O)N2OC (centres unmarked) [Compound P1.12]
mortality at 200 ppm [2]: ≥ 80% | damage to cabbage plants (phytotoxicity), 0-100% rating scale [3]: ≤ 10%

COCCON1C(=O)C(Cl)(c2cc(-c3ccc(Cl)cc3)c(F)cc2C)C(=O)C12CCN(OC)CC2 (centres unmarked) [Compound P1.13]
mortality at 400 ppm [6]: > 80%

COCON1C(=O)C(c2c(C)cc(-c3ccc(Cl)cc3)cc2C)=C(O)C12CCN(OC)CC2 [Compound P2.15, 3-(4′-Chloro-3,5-dimethyl-biphenyl-4-yl)-4-hydroxy-8-methoxy-1-methoxymethoxy-1,8-diaza-spiro[4.5]dec-3-en-2-one]
melting point: 128 °C (dec.)

CON1CCC2(CC1)C(O)=C(c1c(C)cc(C)cc1C)C(=O)N2OCCOC1CCCCO1 (centres unmarked) [Compound P2.22]
melting point: 135 to 137 °C

COCON1C(=O)C(c2c(F)ccc(C)c2Cl)=C(O)C12CCN(OC)CC2 [Compound P2.60]
melting point: 155 to 158 °C

COCCON1C(=O)C(c2cc(Br)c(C)cc2C)=C(O)C12CCN(OC)CC2 [Compound P2.73]
melting point: 63 to 64 °C

CON1CCC2(CC1)C(O)=C(c1cc(Br)c(C)cc1C)C(=O)N2OC [Compound P2.75]
melting point: 86 to 87 °C

COCCON1C(=O)C(c2cc(Br)c(F)cc2C)=C(O)C12CCN(OC)CC2 [Compound P2.87]
melting point: 71 to 74 °C

COCON1C(=O)C(c2cc(Br)c(F)cc2C)=C(O)C12CCN(OC)CC2 [Compound P2.89]
melting point: 64 to 67 °C

CON1CCC2(CC1)C(O)=C(c1c(C)cc(C)cc1C)C(=O)N2OCC1CCCCC1 [Compound P2.96]
melting point: 169 to 172 °C

COCCON1C(=O)C(c2c(C)cc(Cl)cc2C)=C(O)C12CCN(OC)CC2 [Compound P2.101]
melting point: 161 to 164 °C

CON1CCC2(CC1)C(O)=C(c1c(C)cc(Cl)cc1C)C(=O)N2OC [Compound P2.102]
melting point: 88 to 92 °C

CON1CCC2(CC1)C(O)=C(c1c(C)cc(Cl)cc1C)C(=O)N2O [Compound P2.103, 3-(4-Chloro-2,6-dimethyl-phenyl)-1,4-dihydroxy-8-methoxy-1,8-diaza-spiro[4.5]dec-3-en-2-one]
melting point: 228 to 231 °C

COCON1C(=O)C(c2c(C)cc(Cl)cc2C)=C(O)C12CCN(OC)CC2 [Compound P2.104]
melting point: 176 to 178 °C

CON1CCC2(CC1)C(O)=C(c1c(C)cc(Cl)cc1C)C(=O)N2OC1CCCO1 (centres unmarked) [Compound P2.105]
melting point: 137 to 139 °C
